1 compound from article PMC4632086, “Effects and possible mechanisms of action of acacetin on the behavior and eye morphology of Drosophila models of Alzheimer’s disease” (Scientific Reports, 2015) can be followed below.

In assay [1] the test system is human APP. Put plainly: Western blot, APP protein in heads of elav < APP/BACE-1 flies. It is filed as in vivo, Drosophila melanogaster. The settings on record: 20-day-old males. The procedure: The elav < APP/BACE-1 flies were cultured from the egg stage, as described previously. The lysates were obtained from the heads of 50 male flies (20 days old) by placing the heads in 100 μL RIPA buffer (pH 8.0) containing a 1% protease inhibitor cocktail. The controls received 0.1% DMSO. The lysates were centrifuged at 14,000 rpm for 30 min at 4 °C. The protein content of the supernatant was determined using a Bradford Protein Assay kit (Sigma-Aldrich) and BSA was used as the standard. The total proteins (30 μg/sample for APP and BACE-1 detection; 70 μg/sample for Aβ detection) were mixed with an equal volume of 5× sample buffer[81] containing 40 mM of DL-dithiothreitol, boiled for 10 min, and then loaded onto 8, 10, and 12% sodium dodecyl sulfate-polyacrylamide gels using a Mini-Protean 3 electrophoresis cell (Bio-Rad, Hercules, CA, USA) for APP, APP-CTF (APP-αCTF and APP-βCTF) and AICD, BACE-1, and Aβ detection, respectively. After electrophoresis at 110 V in 2 h, the proteins from the gels were transferred onto a polyvinyl difluoride membrane (Pall Corporation, Pensacola, FL, USA) using an electroblotting apparatus. The membrane was then blocked with 5% skim milk (BD Difco, Flanklin Lakes, NJ, USA) in PBS containing 0.1% (v/v) Tween-20 (0.1% PBS-T) at room temperature for 1 h, and further incubated overnight at 4 °C with a 1:4,000 dilution of an anti-APP C-terminal antibody to detect the cleaved APP product, a 1:1,000 dilution of anti-BACE-1, and a 1:1,000 dilution of anti-amyloid (4G8). After washing with 0.1% PBS-T three times at 10 min intervals, the membranes were further incubated for 2 h with a goat anti-rabbit IgG H&L (HRP) secondary antibody at a1:4,000 dilution for APP and BACE-1 and a goat anti-mouse lgG-HRP at a 1:5,000 dilution for β-amyloid. […] The differences in protein expression were quantified using a Molecular Imager Gel Doc XR system (Bio-Rad, Hercules, CA, USA) and normalized to actin expression on the same membrane. The results are expressed as the means ± SEs of duplicate samples from three independent experiments.
(Immunoblotting shows a protein as a band on a membrane.)

Assay [2] relates to elav < APP/BACE-1 flies. Put plainly: Climbing assay (negative geotaxis). It counts as in vivo, Drosophila melanogaster. The note with it: 100, 300, and 500 μM, males. The method, then:
The climbing activity assay was performed, as described by Wang et al.[33] and Crowther et al.[34]. Groups of 20 male elav < APP/BACE-1 flies (1, 5, 10, and 15 days old), cultured in vials as stated previously, were separately placed in an empty vial conjoined with another vial on top, and manually tapped twice. After 20 s, the flies that climbed from the bottom and crossed the 9.5 cm line were counted, and the climbing index was determined as the number of flies that climbed to the top vial relative to the total number of test flies and expressed as a percentage. The controls received 0.1% DMSO. All trials were repeated five times using 20 males per replicate.

As to `COc1ccc(-c2cc(=O)c3c(O)cc(O)cc3o2)cc1` [acacetin], the “APP levels, % of the control levels” value is 86% in assay [1] (100 μM, not significantly different from control); 70% in assay [1] (300 μM); 69% in assay [1] (500 μM). For the same compound, the climbing index entry in assay [2] (1 day postemergence, vehicle 47%) was “approximately 68%”; in assay [2] (5 days postemergence, vehicle 39%), 60–66%; in assay [2] (10 days postemergence, vehicle 36%) it was 53–54%; in assay [2] (15 days postemergence, vehicle 11%) it was 27–30%.
